The record followed here is patent US5972945A, “2-aminoalkylaminoquinolines; dopamine receptor subtype specific ligands” (Neurogen Corporation, priority 1998, dated 1999).

Test [1] concerns M2 Muscarinic subtype. As to the kind of experiment: M2 muscarinic subtype assay essentially as in U.S. Pat. No. 5,093,333. Type of test: binding. How it is done: (§1) Various compounds of the invention were also evaluated in M1 and M2 Muscarinic subtype assays essentially as set forth in U.S. Pat. No. 5,093,333.
For test [2], the system named is M1 Muscarinic subtype. As to the kind of experiment: M1 muscarinic subtype assay essentially as in U.S. Pat. No. 5,093,333. The test is classed as binding. On the procedure:
as §1

For test [3], the system named is D4 receptor. Briefly: D4 receptor binding (3H-YM 09151-2 displacement). On the set-up: species or system African Green monkey. Conditions: for D4: Table 2, compounds of U.S. Pat. No. 5,093,333 (Saab), parameter and unit not given; for Ki: Table 1, 0.5 nM 3H-YM 09151-2, COS cells with recombinant receptor. On the procedure:
(§2) Pellets of COS cells containing recombinantly produced D2 or D4 receptors from African Green monkey were used for the assays. The sample is homogenized in 100 volumes (w/vol) of 0.05 M Tris HCl buffer at 4° C. and pH 7.4. The sample is then centrifuged at 30,000×g and resuspended and rehomogenized. The sample is then centrifuged as described and the final tissue sample is frozen until use. The tissue is resuspended 1:20 (wt/vol) in 0.05 M Tris HCl buffer containing 100 mM NaCl.
(§3) Incubations are carried out at […] and contain 0.4 ml of tissue sample, 0.5 nM ^3 H-YM 09151-2 and the compound of interest in a total incubation of 1.0 ml. Nonspecific binding is defined as that binding found in the presence of […]; without further additions nonspecific binding is less than 20% of total binding. Binding characteristics of various compounds of the invention for D2 and D4 receptor subtypes are shown in Table 1 for […].

Test [4] has as its target T1, D2 receptor (Chlorocebus aethiops, UniProt P52702).
T1 construct: expressed in transfected cells; host or cells: COS cells
Briefly: D2 receptor binding (3H-YM 09151-2 displacement). Also on record: species or system African Green monkey. Conditions: Table 1; 0.5 nM 3H-YM 09151-2, COS cells with recombinant receptor. How it is done:
as §2, §3

Where [5] appears, read: Table 2, compounds of U.S. Pat. No. 5,093,333 (Saab), parameter and unit not given.

Molecules are shown by their SMILES.

One may read the Ki as the equilibrium dissociation constant of an inhibitor or competing ligand from its target.

T1 sequence (P52702 whole entry): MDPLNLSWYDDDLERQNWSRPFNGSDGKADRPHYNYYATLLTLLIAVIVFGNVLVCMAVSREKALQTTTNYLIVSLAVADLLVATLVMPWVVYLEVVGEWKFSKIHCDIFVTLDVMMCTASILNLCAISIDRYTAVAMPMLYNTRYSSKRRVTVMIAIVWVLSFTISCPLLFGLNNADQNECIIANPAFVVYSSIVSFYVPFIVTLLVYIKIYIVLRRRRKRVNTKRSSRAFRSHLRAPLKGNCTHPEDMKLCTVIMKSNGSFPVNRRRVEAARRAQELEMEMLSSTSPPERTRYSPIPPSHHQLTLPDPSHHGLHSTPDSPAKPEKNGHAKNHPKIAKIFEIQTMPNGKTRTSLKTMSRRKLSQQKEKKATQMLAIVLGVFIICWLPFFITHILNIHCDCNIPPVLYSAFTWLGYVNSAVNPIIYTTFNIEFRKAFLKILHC

The molecule `Cc1cc(NCCCN2CCOCC2)nc2ccccc12` came in with an M2 in test [1] (setting [5]) of 2500. The M1 in test [2] (setting [5]) stood at 1200. This molecule also showed a D4 in test [3] of more than 1000.
Regarding `c1ccc(N2CCN(CCNC3=Nc4ccccc4CC3)CC2)nc1` [Compound 2, 2-3,4-dihdroquinolyl(2-(4-(2-pyridyl)piperazinyl)ethyl)amine], the inhibition constant Ki in test [3] amounted to 0.03 µM.
On to `Fc1cnc(N2CCN(CCNC3=Nc4ccccc4CC3)CC2)nc1` [Compound 3, 2-3,4-dihydroquinoly(2-(4-(5-fluoropyrimidin-2-yl)piperazinyl)ethyl)amine], for which the “M2” value in test [1] (Table 1, parameter not stated) came out at 144 nM. For the same molecule, the “M1” value in test [2] (Table 1, parameter not stated) is 128 nM. Also, in test [3], the Ki stood at 0.008 µM.
`Cc1cccc(N2CCN(CCCNc3ccc4ccccc4n3)CC2)c1C` [Compound 21, (3-(4-(2,3-dimethylphenyl)piperazinyl)propyl)2-quinolylamine]: the Ki in test [4] is more than 0.1 µM; in test [3] it was 0.022 µM.
On to `Cc1cc(NCCCN2CCN(c3ncccn3)CC2)nc2ccccc12` [Compound 22, (4-methyl(2-quinolyl))(3-(4-(pyrimidin-2-yl)piperazinyl)propyl)amine], for which the figures for the Ki in test [4] and in test [3] were 3.3 µM and 0.01 µM, respectively.
Molecule `c1ccc2nc(NCCCN3CCOCC3)ccc2c1` [Saab Example 2] showed an M2 in test [1] (setting [5]) of 11600. Also, the M1 in test [2] (setting [5]) is 2500. This molecule also had a D4 in test [3] of more than 1000.
For `Cc1cc(NCCCN2CCN(C)CC2)nc2ccccc12` [Saab Example 3], in test [1] (setting [5]), the M2 came to 2800. For the same molecule, in test [2] (setting [5]), the M1 turned out to be 600. The molecule further returned a D4 in test [3] of more than 1000.
Turning to `Cc1cc(NCCCN2CCCC2=O)nc2ccccc12` [Saab Example 7], the M2 in test [1] (setting [5]) stood at 20000. Further, in test [2] (setting [5]), the M1 is 1300. Besides, the D4 in test [3] is reported as more than 1000.
